# Legend:
# [1] = test system: FRET-1 (DNA, hairpin) CGCGAATTCGCGAAAAACGCGAATTCGCG; assay: fluorescence (FRET) melting; conditions: 7 μM compound (r = 7), 1.0 μM DNA; control Tm 74.9 °C
# [2] = test system: FRET-2 (DNA, hairpin) GCATTATAATGCAAAAAGCATTATAATGC; assay: fluorescence (FRET) melting; conditions: 10 μM compound (r = 10), 1.0 μM DNA; control Tm 61.5 °C
# [3] = test system: FRET-3 (DNA, hairpin) ATCGGCGCCGATAAAAAATCGGCGCCGAT; assay: fluorescence (FRET) melting; conditions: 10 μM compound (r = 10), 1.0 μM DNA; control Tm 79.7 °C; condensation; +0.48 °C at r = 2
# [4] = test system: FRET-4 (DNA, hairpin) ATGGCCGGCCGGAAAAACCGGCCGGCCAT; assay: fluorescence (FRET) melting; conditions: 10 μM compound (r = 10), 1.0 μM DNA; control Tm 83.0 °C; condensation; +1.21 °C at r = 2.5
# [5] = test system: FRET-1 (DNA, hairpin) CGCGAATTCGCGAAAAACGCGAATTCGCG; assay: fluorescence (FRET) melting, Bard equation; conditions: 1.0 μM DNA; r = 0–7; derived from Tm fraction bound; 37 °C pre-incubation
# [6] = test system: FRET-2 (DNA, hairpin) GCATTATAATGCAAAAAGCATTATAATGC; assay: fluorescence (FRET) melting, Bard equation; conditions: 1.0 μM DNA; r = 0–10; derived from Tm fraction bound; 37 °C pre-incubation
# [7] = test system: poly[d(A-T)2] (DNA, polymer) AT; assay: ethidium bromide displacement (fluorescence); conditions: 12.5 μM EtBr displaced, 12.5 μM DNA, 1 h, per base
# [8] = test system: poly[d(G-C)2] (DNA, polymer) GC; assay: ethidium bromide displacement (fluorescence); conditions: 12.5 μM EtBr displaced, 12.5 μM DNA, 1 h, per base
# [9] = test system: F-1 (DNA, hairpin) CGCGAATTCGCGAAAAACGCGAATTCGCG; assay: MST instrument, initial fluorescence, Hill model; conditions: Na+ (25 mM NaCl); 80 mM HEPES; 1 μM DNA; low 10^–5 M; fluorescence decrease ascribed to DNA condensation
# [10] = test system: F-2 (DNA, hairpin) GCATTATAATGCAAAAAGCATTATAATGC; assay: MST instrument, initial fluorescence, Hill model; conditions: Na+ (25 mM NaCl); 80 mM HEPES; 1 μM DNA; fluorescence decrease ascribed to DNA condensation
# [11] = test system: F-3 (DNA, hairpin) ATCGGCGCCGATAAAAAATCGGCGCCGAT; assay: MST instrument, initial fluorescence, Hill model; conditions: Na+ (25 mM NaCl); 80 mM HEPES; 1 μM DNA; low 10^–5 M; fluorescence decrease ascribed to DNA condensation
# [12] = test system: F-4 (DNA, hairpin) ATGGCCGGCCGGAAAAACCGGCCGGCCAT; assay: MST instrument, initial fluorescence, Hill model; conditions: Na+ (25 mM NaCl); 80 mM HEPES; 1 μM DNA; low 10^–5 M; fluorescence decrease ascribed to DNA condensation
# [13] = test system: poly[d(A-T)2] (DNA, polymer) AT; assay: limited-bound ethidium bromide fluorescence quenching, Hill model; conditions: Na+ (40 mM NaCl); 80 mM HEPES pH 7.2; 5 μM EtBr, 25 μM DNA; EtBr fluorescence quenched; per base
# [14] = test system: poly[d(G-C)2] (DNA, polymer) GC; assay: as above; conditions: Na+ (40 mM NaCl); 80 mM HEPES pH 7.2; 5 μM EtBr, 25 μM DNA; EtBr fluorescence quenched; per base
# [15] = apparent, complex prepared in situ, Kapp = Kb × 12.6/C50
smiles,measurement,setting,value
O=[N+]([O-])[O-].O=[N+]([O-])[O-].O=[N+]([O-])[O-].O=[N+]([O-])[O-].[Cu+2].[Cu+2].c1cnc2c(c1)cc(-n1cc(CCCCc3cn(-c4cc5cccnc5c5ncccc45)nn3)nn1)c1cccnc12,Δ TM,[1],+ 4.5 °C
same,Δ TM,[2],+ 3.6 °C
same,Δ TM,[3],- 3.7 °C
same,Δ TM,[4],- 6.3 °C
same,Kb,[5],1.06e+07 M⁻¹
same,Kb,[6],4.38e+08 M⁻¹
same,C50,[7],3.911 µM
same,Kapp,[7]; [15],2.84e+07 M⁻¹
same,C50,[8],6.318 µM
same,Kapp,[8]; [15],1.75e+07 M⁻¹
same,EC50,[9],11.92 µM
same,EC50,[10],9.2 × 10^–6 M
same,EC50,[11],11.39 µM
same,EC50,[12],11.25 µM
same,Q (EC50),[13],11.18 µM
same,Q (EC50),[14],12.86 µM

# — paper PMC11705080 (2025)
